Measurements from patent US20250213563A1, “SUBSTITUTED PYRIMIDIN-4(3H)-ONES FOR USE IN TREATING CANCER” (NAVIRE PHARMA, INC., priority 2021, published 2025).

Legend:
[1] = biological target: T1, Large tumor suppressor kinase 1 (LATS1) (Homo sapiens, UniProt O95835); assay: KINOMEscan competition binding; details: read-out: ligand binding, % control
T1 construct: purchased DiscoverX (KINOMEscan platform)
Method: (§1) Activity of Compound (10b) (1 μM) was assessed against a panel of 419 human kinases (including a set of disease-relevant mutant variants). Assays were conducted using the KINOMEscan™ platform from DiscoverX which measures compound interaction with kinases using active site-directed competition binding assays. Displacement of ligand binding to the kinase by <35% of the control value is considered significant. Of the 419 kinases tested, only 4 kinases reached this level of displacement: Protein kinase C eta (PRKCH), 34% control; Large tumor suppressor kinase 1 (LATS1), 32% control; General control nonderepressible 2 kinase (GCN2), 21% control; and Hematopoietic Progenitor Kinase 1 (HPK1), 4.4% control.

[2] = biological target: T2, Protein kinase C eta (PRKCH) (Homo sapiens, UniProt P24723); assay: KINOMEscan competition binding; details: read-out: ligand binding, % control
T2 construct: purchased DiscoverX (KINOMEscan platform)
Method: as §1

[3] = tested on: General control nonderepressible 2 kinase (GCN2); assay: KINOMEscan competition binding; parameters: species or system human; details: 1 μM
Method: as §1

[4] = biological target: T3, Hematopoietic Progenitor Kinase 1 (HPK1) (Homo sapiens, UniProt Q92918); assay: KINOMEscan competition binding and Kd dose-response
T3 construct: purchased DiscoverX (KINOMEscan platform)
Method: as §1
HPK1 is a hematopoietic cell-restricted serine/threonine kinase and is not expressed in any major organs. HPK1 has been implicated in activation of c-Jun N-terminal kinases (JNK) and genetic disruption of HPK1 is reported to enhance the antitumor immune response of T cells and dendritic cells (Hu et al 1996; Sawasdikosol et al 2012).

human SHP-1 = biological target: T4, human SHP-1 (Homo sapiens, UniProt P29350); assay: Eurofins Panlabs spectrofluorimetric phosphatase assay; type: biochemical; details: 10 μM
T4 construct: a panel of 14 full-length human phosphatases; purchased Eurofins Panlabs
Method: The activity of Compound (10b) was also assessed against a panel of 14 full-length human phosphatases using spectrofluorimetric biochemical assays. These assays were conducted using the Eurofins Panlabs platform.

[5] = Single-dose pharmacokinetics, C57BL/6 mouse; type: in vivo, mouse (C57BL/6; details: female, plasma, oral 10 mg/kg, free base
Method: (§2) The pharmacokinetic (PK) parameters of Compound (10b) (freebase) were determined following single intravenous (IV) and oral (PO) administration in female CD-1 mouse, female C57BL/6 mouse (PO only), male Sprague Dawley rat, male Beagle dog, and male Cynomolgus monkey. Additional evaluation of the PK properties of Compound (10b) was obtained following single dose PO administration in female CD-1 mouse, male Sprague Dawley rat and male Beagle dog over a dose range spanning 10 to 300 mg/kg (mouse and rat) and 1 to 100 mg/kg (dog). The intravenous dose solutions were prepared in 20% DMSO-60% PEG400-20% water and the oral dose solutions as suspensions in 0.5% methylcellulose in water, unless otherwise noted. Plasma concentration profiles were generated from serial sampling in individual animals up to 24 hours post dose, except for the studies in mice where composite sampling methods were used (i.e. 3 sampling times per mouse; 9 mice per group). […] Exposures increased with increasing dose level across species, in a dose-proportional manner in mouse and dog, and in a greater than dose-proportional manner in rat (80× increase in AUC with a 30× increase in dosage).

[6] = Single-dose pharmacokinetics, Beagle dog; type: in vivo, male); details: free base; for AUC(0-t): read-out: AUC0→24
Method: as §2

[7] = Single-dose pharmacokinetics, summary across species; type: in vivo; details: both sexes, CD-1, C57BL/6, Sprague Dawley, Beagle, mouse, rat, dog, monkey, plasma
Method: as §2

KYSE-520 = assay: DUSP6 mRNA levels (qPCR); type: cell-based; details: Homo sapiens; KYSE-520, EGFR^amp
Method: (§3) The potency of Compound (10b) in a panel of human tumor cell lines with active MAPK signaling was assessed. Cell viability in a 3D culture system was assessed by measuring CellTiter-Glo (CTG) luminescence following 8 days of treatment with nine concentrations of Compound (10b). MAPK pathway signaling was assessed by measuring pERK protein levels and DUSP6 mRNA levels by homogeneous time resolved fluorescence (HTRF) and quantitative polymerase chain reaction (qPCR), respectively. […] These viability effects correlated with pERK inhibition (Table 2, FIG. 6B) and DUSP6 inhibition (FIG. 6C).

NCI-H358 = assay: DUSP6 mRNA levels (qPCR); type: cell-based; details: Homo sapiens; NCI-H358, KRAS^G12C
Method: as §3

HCC827-ER CDX model = assay: Monotherapy anti-tumor activity, CDX model; type: in vivo, immunocompromised mice; details: 100 mg/kg daily orally, 21 to 33 days; MET^amp, resistant to EGFR inhibitor
Method: (§4) In vivo efficacy studies were conducted to evaluate the monotherapy anti-tumor activity of Compound (10b) across a panel of cell line-derived xenograft (CDX) models. […] Significant anti-tumor efficacy was also observed in two CDX models with acquired resistance to EGFR inhibitors.

KYSE-520 model = assay: Monotherapy anti-tumor activity, CDX model; type: in vivo, immunocompromised mice; details: 100 mg/kg daily orally, 21 to 33 days; EGFR^amp
Method: as §4

MIA PaCa-2 CDX model = assay: Monotherapy anti-tumor activity, CDX model; type: in vivo, immunocompromised mice; details: 100 mg/kg daily orally, 21 to 33 days; KRAS^G12C
Method: as §4

NCI-H1975-OR CDX model = assay: Monotherapy anti-tumor activity, CDX model; type: in vivo, immunocompromised mice; details: 100 mg/kg daily orally, 21 to 33 days; EGFR^L858R, EGFR^T790M, EGFR^C797S
Method: as §4

NCI-H358 CDX model = assay: Monotherapy anti-tumor activity, CDX model; type: in vivo, immunocompromised mice; details: 100 mg/kg daily orally, 21 to 33 days; KRAS^G12C
Method: as §4

[8] = male, Beagle, dog, plasma, IV 1 mg/kg
[9] = male, Beagle, dog, plasma, oral 10 mg/kg

T3 sequence (Q92918 whole entry): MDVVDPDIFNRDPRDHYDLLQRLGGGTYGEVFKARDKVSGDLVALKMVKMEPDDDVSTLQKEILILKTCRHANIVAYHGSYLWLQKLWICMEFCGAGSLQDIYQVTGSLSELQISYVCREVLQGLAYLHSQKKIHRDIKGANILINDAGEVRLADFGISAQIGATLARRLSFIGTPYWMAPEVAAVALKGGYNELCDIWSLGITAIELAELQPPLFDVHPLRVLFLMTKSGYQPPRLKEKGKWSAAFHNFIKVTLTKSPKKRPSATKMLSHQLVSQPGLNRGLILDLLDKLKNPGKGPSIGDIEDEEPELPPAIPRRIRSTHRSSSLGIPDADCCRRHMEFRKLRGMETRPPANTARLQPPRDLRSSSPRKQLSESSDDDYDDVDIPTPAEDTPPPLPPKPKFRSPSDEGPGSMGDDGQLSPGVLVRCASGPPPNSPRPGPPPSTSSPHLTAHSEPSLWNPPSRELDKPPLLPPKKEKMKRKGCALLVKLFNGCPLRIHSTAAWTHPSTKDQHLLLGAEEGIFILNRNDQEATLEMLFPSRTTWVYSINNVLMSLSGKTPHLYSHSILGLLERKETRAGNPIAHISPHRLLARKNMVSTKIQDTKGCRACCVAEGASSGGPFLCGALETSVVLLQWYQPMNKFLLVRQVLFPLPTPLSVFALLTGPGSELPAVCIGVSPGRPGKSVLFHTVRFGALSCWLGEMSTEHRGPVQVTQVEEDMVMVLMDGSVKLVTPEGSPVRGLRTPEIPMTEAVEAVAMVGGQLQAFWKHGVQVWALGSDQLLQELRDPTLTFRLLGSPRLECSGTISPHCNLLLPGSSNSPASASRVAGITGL
T1 sequence (O95835 whole entry): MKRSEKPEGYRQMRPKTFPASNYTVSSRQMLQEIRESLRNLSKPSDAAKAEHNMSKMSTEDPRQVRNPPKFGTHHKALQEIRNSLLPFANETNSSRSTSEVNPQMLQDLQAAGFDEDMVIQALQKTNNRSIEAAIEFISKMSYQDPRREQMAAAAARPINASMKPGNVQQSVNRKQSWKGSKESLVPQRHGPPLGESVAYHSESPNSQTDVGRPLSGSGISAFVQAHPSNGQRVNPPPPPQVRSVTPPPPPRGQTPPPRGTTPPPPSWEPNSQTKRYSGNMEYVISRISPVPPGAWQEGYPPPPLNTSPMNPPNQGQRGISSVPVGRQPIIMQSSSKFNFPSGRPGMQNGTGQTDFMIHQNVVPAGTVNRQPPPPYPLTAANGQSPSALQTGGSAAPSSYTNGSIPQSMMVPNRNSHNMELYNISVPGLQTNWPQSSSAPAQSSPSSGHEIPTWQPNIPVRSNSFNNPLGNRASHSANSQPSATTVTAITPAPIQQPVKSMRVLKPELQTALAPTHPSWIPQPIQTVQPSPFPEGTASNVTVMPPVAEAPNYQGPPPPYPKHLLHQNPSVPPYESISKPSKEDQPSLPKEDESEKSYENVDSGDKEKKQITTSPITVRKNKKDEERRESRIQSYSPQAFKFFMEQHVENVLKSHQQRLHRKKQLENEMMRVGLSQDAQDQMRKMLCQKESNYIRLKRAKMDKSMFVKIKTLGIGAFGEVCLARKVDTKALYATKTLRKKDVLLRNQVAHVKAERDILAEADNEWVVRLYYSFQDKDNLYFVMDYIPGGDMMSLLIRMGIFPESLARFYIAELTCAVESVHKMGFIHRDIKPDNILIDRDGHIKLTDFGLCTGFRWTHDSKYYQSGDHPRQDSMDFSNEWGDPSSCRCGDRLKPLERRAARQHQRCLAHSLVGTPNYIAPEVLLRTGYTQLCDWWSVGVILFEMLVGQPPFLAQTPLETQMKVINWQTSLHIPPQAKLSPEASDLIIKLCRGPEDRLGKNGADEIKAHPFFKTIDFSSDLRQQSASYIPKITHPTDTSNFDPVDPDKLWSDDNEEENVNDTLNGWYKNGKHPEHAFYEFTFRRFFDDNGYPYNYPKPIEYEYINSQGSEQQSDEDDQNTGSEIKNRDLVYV
T4 sequence (P29350 whole entry): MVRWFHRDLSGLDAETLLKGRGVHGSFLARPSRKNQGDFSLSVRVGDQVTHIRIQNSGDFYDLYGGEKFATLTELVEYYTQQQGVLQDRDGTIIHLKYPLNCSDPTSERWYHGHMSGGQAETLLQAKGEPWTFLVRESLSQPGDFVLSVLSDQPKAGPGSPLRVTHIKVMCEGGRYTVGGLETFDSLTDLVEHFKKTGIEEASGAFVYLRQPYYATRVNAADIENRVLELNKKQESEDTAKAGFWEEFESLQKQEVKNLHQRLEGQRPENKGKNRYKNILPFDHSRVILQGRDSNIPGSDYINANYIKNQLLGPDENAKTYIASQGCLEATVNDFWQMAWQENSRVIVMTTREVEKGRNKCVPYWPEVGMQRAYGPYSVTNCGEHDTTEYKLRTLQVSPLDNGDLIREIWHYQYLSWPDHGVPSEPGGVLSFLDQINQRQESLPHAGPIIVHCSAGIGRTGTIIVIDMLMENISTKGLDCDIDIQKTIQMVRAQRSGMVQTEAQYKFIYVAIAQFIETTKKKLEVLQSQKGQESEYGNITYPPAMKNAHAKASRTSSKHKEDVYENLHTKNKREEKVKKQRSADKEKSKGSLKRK
T2 sequence (P24723 whole entry): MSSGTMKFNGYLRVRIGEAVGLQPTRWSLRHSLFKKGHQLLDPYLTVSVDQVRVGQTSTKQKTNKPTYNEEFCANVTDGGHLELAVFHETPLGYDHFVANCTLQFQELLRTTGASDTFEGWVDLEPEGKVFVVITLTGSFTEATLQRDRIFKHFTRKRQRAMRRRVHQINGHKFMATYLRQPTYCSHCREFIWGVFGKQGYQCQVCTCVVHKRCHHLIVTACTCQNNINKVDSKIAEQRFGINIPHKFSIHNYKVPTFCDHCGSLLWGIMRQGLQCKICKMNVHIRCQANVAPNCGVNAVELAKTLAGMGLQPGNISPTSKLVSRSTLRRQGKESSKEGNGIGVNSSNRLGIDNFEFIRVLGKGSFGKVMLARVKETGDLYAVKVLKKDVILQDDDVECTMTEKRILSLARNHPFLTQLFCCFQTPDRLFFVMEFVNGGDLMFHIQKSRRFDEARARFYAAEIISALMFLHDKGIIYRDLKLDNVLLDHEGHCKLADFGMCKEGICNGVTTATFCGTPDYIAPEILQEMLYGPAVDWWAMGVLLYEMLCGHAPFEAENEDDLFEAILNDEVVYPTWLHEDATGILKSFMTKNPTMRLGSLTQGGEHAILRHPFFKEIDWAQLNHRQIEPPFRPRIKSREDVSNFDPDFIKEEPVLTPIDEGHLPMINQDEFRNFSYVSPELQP

Cc1c(N2CCC3(CC2)CO[C@@H](C)[C@H]3N)nc(C)n(-c2cccc(Cl)c2Cl)c1=O (atropisomer, axis not shown; (Ra)) [Compound (10b), 6-((3S,4S)-4-amino-3-methyl-2-oxa-8-azaspiro[4.5]decan-8-yl)-3-(Ra)-(2,3-dichlorophenyl)-2,5-dimethylpyrimidin-4(3H)-one]
remaining binding at 1 µM [1]: 32% | remaining ligand binding at 1 µM [2]: 34% | ligand binding, % control [3]: 21 % control | ligand binding, % of control at 1 µM ([4]; 1 μM): 4.4% | Kd ([4]; dose-response curve): 9800 nM | inhibition of human SHP-1 (human SHP-1): did not demonstrate any inhibition | Cmax [5]: 5.4 µM | Tmax [5]: 1 h | AUC(0-t) ([5]; read-out: AUC0→24): 39 µM·h | half-life [6, 8]: 8.23 h | AUC(0-t) [6, 8]: 3.91 µM·h | clearance ([6]; male, Beagle, dog, plasma, IV 1 mg/kg, read-out: Clp (converted)): 8.5 mL/min/kg | Vd ([6]; male, Beagle, dog, plasma, IV 1 mg/kg, read-out: Vdss): 5.46 L/kg | Cmax [6, 9]: 6.37 µM | Tmax [6, 9]: 0.83 h | AUC(0-t) [6, 9]: 48.2 µM·h | F ([6]; oral 10 mg/kg): 115% | Tmax ([7]; oral 1-100 mg/kg): 0.25 to 3.67 h | bioavailability ([7]; oral doses 3- to 30-fold higher than intravenous doses, read-out: apparent oral bioavailabilities): 51.2 to 115% | IC50 (KYSE-520): 60 nM | IC50 (NCI-H358): 820 nM | TGI (HCC827-ER CDX model): 84% | TGI (KYSE-520 model): 77% | tumor growth inhibition (TGI) (MIA PaCa-2 CDX model): 74% | mean tumor regression (NCI-H1975-OR CDX model): 87% | mean tumor regression (NCI-H358 CDX model): 50%
